Legend:
OATP1B3 = OATP1B3 (Homo sapiens, UniProt Q9NPD5)
[1] = tested on: somatostatin receptor-positive tumors, including GEP-NETS; conditions: 1,214 patients; cited from earlier work
progressive GEP-NETs = conditions: cited from earlier work
metastatic midgut NET = conditions: 30 mg/month, cited from earlier work

Sequence of OATP1B3 (Q9NPD5 whole entry): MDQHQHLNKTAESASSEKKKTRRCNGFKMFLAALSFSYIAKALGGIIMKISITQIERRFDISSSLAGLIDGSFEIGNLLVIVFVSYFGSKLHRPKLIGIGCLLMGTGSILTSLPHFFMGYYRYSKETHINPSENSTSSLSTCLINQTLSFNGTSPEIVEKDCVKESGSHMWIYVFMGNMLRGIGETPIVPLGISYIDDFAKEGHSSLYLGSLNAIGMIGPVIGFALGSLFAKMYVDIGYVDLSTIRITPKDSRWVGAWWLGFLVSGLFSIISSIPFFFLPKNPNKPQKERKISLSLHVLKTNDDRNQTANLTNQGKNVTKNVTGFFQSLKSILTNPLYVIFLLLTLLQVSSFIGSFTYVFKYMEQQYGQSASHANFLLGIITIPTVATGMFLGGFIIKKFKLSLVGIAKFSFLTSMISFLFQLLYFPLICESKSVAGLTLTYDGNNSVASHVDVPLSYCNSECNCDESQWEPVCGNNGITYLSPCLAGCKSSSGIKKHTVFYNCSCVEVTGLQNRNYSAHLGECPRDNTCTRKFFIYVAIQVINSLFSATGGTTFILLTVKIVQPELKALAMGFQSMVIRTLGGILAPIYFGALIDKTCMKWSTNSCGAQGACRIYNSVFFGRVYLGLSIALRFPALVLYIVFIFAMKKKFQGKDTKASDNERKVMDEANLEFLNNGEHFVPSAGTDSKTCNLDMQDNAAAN

Row | SMILES | inhibition or induction of human CYP450 enzymes (human CYP450 enzymes) | interaction with OATP1B3 (OATP1B3) | Complete or partial tumor remission [1] [%] | AML and MDS (progressive GEP-NETs; in vivo) [%] | Hematologic grade 3/4 AEs (progressive GEP-NETs; in vivo) [%] | median OS from the start of re-treatment (progressive GEP-NETs; re-treatment, available in 194 patients) [months] | DCR (progressive GEP-NETs; re-treatment, available in 347 patients) [%] | median PFS (progressive GEP-NETs; re-treatment, available in 414 patients) [months] | time to tumor progression (metastatic midgut NET; 42 patients) [months] | patients achieving stable disease (metastatic midgut NET) [%]
1 | C[C@@H](O)[C@H](NC(=O)[C@@H]1CSSC[C@H](NC(=O)[C@@H](Cc2ccccc2)NC(=O)CN2CCN(CC(=O)[O-])CCN(CC(=O)[O-])CCN(CC(=O)[O-])CC2)C(=O)N[C@@H](Cc2ccc(O)cc2)C(=O)N[C@H](Cc2c[nH]c3ccccc23)C(=O)N[C@@H](CCCCN)C(=O)N[C@@H]([C@@H](C)O)C(=O)N1)C(=O)O.[177Lu+3] [Lutathera, ^177Lu-DOTA^0-Tyr^3-Octreotate] | absence of inhibition or significant induction | absence of specific interaction | 39 | < 1 | 9 | 26.78 | 71 | 12.52 | – | –
2 | C[C@@H](O)[C@@H]1NC(=O)[C@H](CCCCN)NC(=O)[C@@H](Cc2c[nH]c3ccccc23)NC(=O)[C@H](Cc2ccccc2)NC(=O)[C@@H](NC(=O)[C@H](N)Cc2ccccc2)CSSC[C@@H](C(=O)N[C@H](CO)[C@@H](C)O)NC1=O [Octreotide LAR, octreotide] | – | – | – | – | – | – | – | – | 14.3 | 67

Reference: patent US20250099634A1, “METHOD OF TREATING CANCER” (Novartis AG, priority 2023, published 2025)
